pIC50: −log10 of the molar value.
Tests used:
[1] = target: T1, RIPK1 kinase (Homo sapiens, UniProt Q13546); assay: In vitro RIPK1 kinase activity IC50 assay (ADP-Glo); assay type: biochemical; conditions: ATP 10 μM; MBP substrate 100 μg/mL; 8 concentration points; read-out: IC50 range of compounds for RIPK1 kinase activity
T1 construct: purchased Promega VA7593
T1 sequence (Q13546 1-671): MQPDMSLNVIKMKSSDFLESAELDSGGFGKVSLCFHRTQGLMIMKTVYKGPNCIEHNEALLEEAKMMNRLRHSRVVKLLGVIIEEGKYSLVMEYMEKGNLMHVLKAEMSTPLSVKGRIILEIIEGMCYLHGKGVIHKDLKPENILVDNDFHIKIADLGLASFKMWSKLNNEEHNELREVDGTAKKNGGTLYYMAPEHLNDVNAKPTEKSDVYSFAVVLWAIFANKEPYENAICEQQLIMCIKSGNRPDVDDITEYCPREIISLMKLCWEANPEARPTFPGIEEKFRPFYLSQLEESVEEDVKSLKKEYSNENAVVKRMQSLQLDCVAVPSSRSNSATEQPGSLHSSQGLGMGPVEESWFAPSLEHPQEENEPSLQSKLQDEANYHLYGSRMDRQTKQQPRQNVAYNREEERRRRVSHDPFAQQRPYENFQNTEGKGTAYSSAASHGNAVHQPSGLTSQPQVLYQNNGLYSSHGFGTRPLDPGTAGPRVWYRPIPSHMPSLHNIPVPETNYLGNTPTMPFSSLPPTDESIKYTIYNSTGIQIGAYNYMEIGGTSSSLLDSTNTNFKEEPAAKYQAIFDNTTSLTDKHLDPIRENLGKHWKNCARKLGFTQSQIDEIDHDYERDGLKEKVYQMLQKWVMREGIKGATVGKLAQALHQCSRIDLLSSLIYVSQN
Procedure, shortened: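 Human RIPK1 preincubated 15 min at room temperature with compound (8-point 1:5 dilution series, 1% DMSO in kinase buffer D). Reaction then ran 1 h with 10 μM ATP and 100 μg/mL MBP substrate; ADP measured by ADP-Glo luminescence, IC50 from four-parameter nonlinear fit.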

[2] = tested on: U937 cells; assay: Inhibition rate of compound (1 μM) on necroptosis of U937 cells (TSZ-induced, CellTiter-Glo); assay type: cell-based; conditions: TSZ (hTNF-α, SM-164, Z-VAD-FMK) 20 hours
Procedure, shortened: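 Percent inhibition comes from ATP luminescence (CellTiter-Glo), referenced to wells without TSZ and wells with TSZ alone. The compound was added to U937 cells 15 min ahead of a TNF-α/SM-164/Z-VAD-FMK mix, followed by 20 h culture at 37° C, 5% CO2.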

Q: Which results are given for `CN1C(=O)[C@H](NC(=O)C(=O)NCCc2ccccc2)COc2ccc(C#CC3(O)COC3)cc21` [Example 77, (R)—N^1-(7-((3-hydroxyoxetan-3-yl)ethynyl)-5-methyl-4-oxo-2,3,4,5-tetrahydrobenzo[b][1,4]oxazepin-3-yl)-N^2-phenethyloxalamide]?
A: pIC50 [1]: > 7.00; Inhibition rate range of compounds (1 μM) on U937 cell necroptosis [2]: A (A: ≥90%)

Q: With `COC1(C#Cc2ccc3c(c2)N(C)C(=O)[C@@H](NC(=O)C(=O)NCCc2ccccc2)CO3)COC1` [Example 78, (S)—N^1-(7-((3-methoxyoxetan-3-yl)ethynyl)-5-methyl-4-oxo-2,3,4,5-tetrahydrobenzo[b][1,4]oxazepin-3-yl)-N^2-phenethyloxalamide] as the molecule, how does the pIC50 [1] read?
A: > 7.00

Q: What about the “Inhibition rate range of compounds (1 μM) on U937 cell necroptosis” value (from here on “Inhibition rate range of compounds”) [2] of the same molecule?
A: A (A: ≥90%)

Q: How did the pIC50 [1] turn out when `CN1C(=O)[C@@H](NC(=O)C(=O)NCCc2ccccc2)COc2ccc(C#CCC3(O)COC3)cc21` [Example 79, (S)—N^1-(7-(3-(3-hydroxyoxetan-3-yl)prop-1-yn-1-yl)-5-methyl-4-oxo-2,3,4,5-tetrahydrobenzo[b][1,4]oxazepin-3-yl)-N^2-phenethyloxalamide] was run?
A: > 7.00

Q: And the “Inhibition rate range of compounds” value [2]?
A: A (A: ≥90%)

Q: With `CN1C(=O)[C@@H](NC(=O)C(=O)NCCc2ccccc2)COc2ccc(C#CC3(O)CCOC3)cc21` (stereo partly drawn) [Example 80, N^1-((3S)-7-((3-hydroxytetrahydrofuran-3-yl)ethynyl)-5-methyl-4-oxo-2,3,4,5-tetrahydrobenzo[b][1,4]oxazepin-3-yl)-N^2-phenethyloxalamide] as the molecule, how does the pIC50 [1] read?
A: > 7.00

Q: And the “Inhibition rate range of compounds” value [2]?
A: A (A: ≥90%)

Q: Which results are given for `CN1C(=O)[C@@H](NC(=O)C(=O)NCCc2ccccc2)COc2ccc(C#CCN3CCC(O)CC3)cc21` [Example 81, (S)—N^1-(7-(3-(4-hydroxypiperidin-1-yl)prop-1-yn-1-yl)-5-methyl-4-oxo-2,3,4,5-tetrahydrobenzo[b][1,4]oxazepin-3-yl)-N^2-phenethyloxalamide]?
A: pIC50 [1]: > 7.00; Inhibition rate range of compounds (1 μM) on U937 cell necroptosis [2]: A (A: ≥90%)

Q: What does the source list for `CN1C(=O)[C@@H](NC(=O)C(=O)NCCc2ccccc2)COc2ccc(C#CCN3C(=O)CCC3=O)cc21` [Example 84, (S)—N^1-(7-(3-(2,5-dioxopyrrolidin-1-yl)prop-1-yn-1-yl)-5-methyl-4-oxo-2,3,4,5-tetrahydrobenzo[b][1,4]oxazepin-3-yl)-N^2-phenethyloxalamide]?
A: pIC50 [1]: > 7.00; Inhibition rate range of compounds (1 μM) on U937 cell necroptosis [2]: A (A: ≥90%)

Q: With `CN1C(=O)[C@@H](NC(=O)C(=O)NCCc2ccccc2)COc2ccc(C#CCN3CCNC(=O)C3)cc21` [Example 85, (S)—N^1-(5-methyl-4-oxo-7-(3-(3-oxopiperazin-1-yl)prop-1-yn-1-yl)-2,3,4,5-tetrahydrobenzo[b][1, 4]oxazepin-3-yl)-N^2-phenethyloxalamide] as the molecule, how does the pIC50 [1] read?
A: > 7.00

Q: What about the “Inhibition rate range of compounds” value [2] of the same molecule?
A: B (B: 50-89%)

Q: With `CN1C(=O)[C@@H](NC(=O)C(=O)NCCc2ccccc2)COc2ccc(C#CCNC(=O)OC(C)(C)C)cc21` [Example 86, tert-butyl (S)-(3-(5-methyl-4-oxo-3-(2-oxo-2-(phenethylamino)acetamido)-2,3,4,5-tetrahydrobenzo[b][1,4]oxazepin-7-yl)prop-2-yn-1-yl)carbamate] as the molecule, how does the pIC50 [1] read?
A: > 7.00

Q: What about the “Inhibition rate range of compounds” value [2] of the same molecule?
A: A (A: ≥90%)

Q: With `CN1C(=O)[C@@H](NC(=O)C(=O)NCCc2ccccc2)COc2ccc(C#CCNC(=O)CO)cc21` [Example 88, (S)—N^1-(7-(3-(2-hydroxyacetamido)prop-1-yn-1-yl)-5-methyl-4-oxo-2,3,4,5-tetrahydrobenzo[b][1, 4]oxazepin-3-yl)-N^2-phenethyloxalamide] as the molecule, how does the pIC50 [1] read?
A: > 7.00

Q: What about the “Inhibition rate range of compounds” value [2] of the same molecule?
A: A (A: ≥90%)

Q: With `C=CC(=O)NCC#Cc1ccc2c(c1)N(C)C(=O)[C@@H](NC(=O)C(=O)NCCc1ccccc1)CO2` [Example 89, (S)—N^1-(7-(3-acrylamidoprop-1-yn-1-yl)-5-methyl-4-oxo-2,3,4,5-tetrahydrobenzo[b][1,4]oxazepin-3-yl)-N^2-phenethyloxalamide] as the molecule, how does the pIC50 [1] read?
A: > 7.00

Q: And the “Inhibition rate range of compounds” value [2]?
A: A (A: ≥90%)

Q: With `CN1C(=O)[C@@H](NC(=O)C(=O)NCCc2ccccc2)COc2ccc(C#CC3CN(C=O)C3)cc21` [Example 91, (S)—N^1-(7-((1-formylazetidin-3-yl)ethynyl)-5-methyl-4-oxo-2,3,4,5-tetrahydrobenzo[b][1,4]oxazepin-3-yl)-N^2-phenethyloxalamide] as the molecule, how does the pIC50 [1] read?
A: > 7.00

Q: And the “Inhibition rate range of compounds” value [2]?
A: A (A: ≥90%)

Q: `CN1C(=O)[C@@H](NC(=O)C(=O)NCCc2ccccc2)COc2ccc(C#CC3(O)CN(C=O)C3)cc21` [Example 92, (S)—N^1-(7-((1-formyl-3-hydroxyazetidin-3-yl)ethynyl)-5-methyl-4-oxo-2,3,4,5-tetrahydrobenzo[b][1,4]oxazepin-3-yl)-N^2-phenethyloxalamide] was tested. Which pIC50 [1] did it give?
A: > 7.00

Q: And the “Inhibition rate range of compounds” value [2]?
A: A (A: ≥90%)

Q: `CCOC(=O)CCC#Cc1ccc2c(c1)N(C)C(=O)[C@@H](NC(=O)C(=O)NCCc1ccccc1)CO2` [Example 94, ethyl (S)-5-(5-methyl-4-oxo-3-(2-oxo-2-(phenethylamino)acetamido)-2,3,4,5-tetrahydrobenzo[b][1,4]oxazepin-7-yl) pent-4-ynoate] was tested. Which pIC50 [1] did it give?
A: > 7.00

Q: What about the “Inhibition rate range of compounds” value [2] of the same molecule?
A: B (B: 50-89%)

Q: What does the source list for `CN1C(=O)[C@@H](NC(=O)C(=O)NCc2ccccc2)COc2ccc(C#CCn3ccnc3)cc21` [Example 104, (S)—N^1-(7-(3-(1H-imidazol-1-yl)prop-1-yn-1-yl)-5-methyl-4-oxo-2,3,4,5-tetrahydrobenzo[b][1,4]oxazepin-3-yl)-N^2-benzyloxalamide]?
A: pIC50 [1]: > 7.00; Inhibition rate range of compounds (1 μM) on U937 cell necroptosis [2]: A (A: ≥90%)

Q: What does the source list for `CN1C(=O)[C@@H](NC(=O)C(=O)NCc2ccccc2)COc2ccc(C#CCN3CCOCC3)cc21` [Example 106, (S)—N^1-benzyl-N^2-(5-methyl-7-(3-morpholinoprop-1-yn-1-yl)-4-oxo-2,3,4,5-tetrahydrobenzo[b][1, 4]oxazepin-3-yl)oxalamide]?
A: pIC50 [1]: > 7.00; Inhibition rate range of compounds (1 μM) on U937 cell necroptosis [2]: B (B: 50-89%)

Q: `CN1C(=O)[C@@H](NC(=O)C(=O)NCc2ccccc2)COc2ccc(C#CCN3CCNC(=O)C3)cc21` [Example 107, (S)—N^1-benzyl-N^2-(5-methyl-4-oxo-7-(3-(3-oxopiperazin-1-yl)prop-1-yn-1-yl)-2,3,4,5-tetrahydrobenzo[b][1,4]oxazepin-3-yl)oxalamide] was tested. Which pIC50 [1] did it give?
A: > 7.00

Q: And the “Inhibition rate range of compounds” value [2]?
A: A (A: ≥90%)

Q: What does the source list for `CN1C(=O)[C@H](NC(=O)C(=O)NCCc2cccc(F)c2)COc2ccc(C#CCCO)cc21` [Example 109, (R)—N^1-(3-fluorophenethyl)-N^2-(7-(4-hydroxybut-1-yn-1-yl)-5-methyl-4-oxo-2,3,4,5-tetrahydrobenzo[b][1,4]oxazepin-3-yl)oxalamide]?
A: pIC50 [1]: > 7.00; Inhibition rate range of compounds (1 μM) on U937 cell necroptosis [2]: A (A: ≥90%)

Q: With `CN1C(=O)[C@@H](NC(=O)C(=O)NCCc2cccc(F)c2)COc2ccc(C#CC3(O)COC3)cc21` [Example 110, (S)—N^1-(3-fluorophenethyl)-N^2-(7-((3-hydroxyoxetan-3-yl)ethynyl)-5-methyl-4-oxo-2,3,4,5-tetrahydrobenzo[b][1,4]oxazepin-3-yl)oxalamide] as the molecule, how does the pIC50 [1] read?
A: > 7.00

Q: And the “Inhibition rate range of compounds” value [2]?
A: A (A: ≥90%)

Q: `CN1C(=O)[C@@H](NC(=O)C(=O)NCCc2cccc(F)c2)COc2ccc(C#CCN3CC[C@@H](O)C3)cc21` [Example 114, N^1-(3-fluorophenethyl)-N^2-((S)-7-(3-((R)-3-hydroxypyrrolidin-1-yl)prop-1-yn-1-yl)-5-methyl-4-oxo-2,3,4,5-tetrahydrobenzo[b][1,4]oxazepin-3-yl)oxalamide] was tested. Which pIC50 [1] did it give?
A: > 7.00

Q: And the “Inhibition rate range of compounds” value [2]?
A: A (A: ≥90%)

Q: With `CN1C(=O)[C@@H](NC(=O)C(=O)NCCc2cccc(F)c2)COc2ccc(C#CCN3CC[C@H](O)C3)cc21` [Example 115, N^1-(3-fluorophenethyl)-N^2-((S)-7-(3-((S)-3-hydroxypyrrolidin-1-yl)prop-1-yn-1-yl)-5-methyl-4-oxo-2,3,4,5-tetrahydrobenzo[b][1,4]oxazepin-3-yl)oxalamide] as the molecule, how does the pIC50 [1] read?
A: > 7.00

Q: And the “Inhibition rate range of compounds” value [2]?
A: A (A: ≥90%)

Q: `CN1C(=O)[C@@H](NC(=O)C(=O)NCCc2cccc(F)c2)COc2ccc(C#Cc3cccnc3)cc21` [Example 117, (S)—N^1-(3-fluorophenethyl)-N^2-(5-methyl-4-oxo-7-(pyridin-3-ylethynyl)-2,3,4,5-tetrahydrobenzo[b][1,4]oxazepin-3-yl)oxalamide] was tested. Which pIC50 [1] did it give?
A: > 7.00

Q: And the “Inhibition rate range of compounds” value [2]?
A: A (A: ≥90%)

From patent publication US20250368633A1, “AZEPINE FUSED RING COMPOUND AS RIPK1 INHIBITOR AND USE THEREOF” (ARTIVILA BIOPHARMA, priority 2022, published 2025)
